{"source": "patent US20040101576A1", "about": "“IMMUNOPOTENTIATORS” (priority 1997, published 2004)", "system": "Langerhans' cells", "conditions": "antigen (trinitrobenzenesulfonic acid, 1 mg/ml) added, Langerhans' cells UV irradiated, 3 mM glutathione added during irradiation; antigen only 17,500, antigen + UV 5,000 (FIG. 1)", "experimental": "An antigen (trinitrobenzenesulfonic acid, 1 mg/ml) was added to Langerhans' cells and, after cleaning, they were mixed and cultured with T cells obtained by purifying lymph gland cell floating fluid with a nylon fiber column (Wako).", "data": [{"smiles": "N[C@@H](CCC(=O)N[C@@H](CS)C(=O)NCC(=O)O)C(=O)O", "note": "[glutathione]", "values": [{"measurement": "multiplication of the T cells", "value": "11,000"}]}]}
